Read-outs that look alike come from different tables or passages of the source.
Tests used:
BSA = molecular target: T1, BSA (Bos taurus, UniProt P02769); test: BSA fluorescence quenching titration; assay type: binding, bovine; settings: for KBSA, Stern–Volmer quenching constant: BSA 3 × 10^−6 M, PBS pH 7.4; for Kq, quenching rate constant: τ0 = 1 × 10^−8
T1 construct: purchased Himedia Chemicals
Description: BSA stock solution (5 mM) was prepared in 5 mM phosphate buffer (pH 7.4) and then kept at 2–6 °C. The binding mechanism of the Ti(IV) complexes with BSA was established using fluorescence titration at 200–500 nm. Metal complexes with BSA were quenched by tracking changes in the fluorescence intensity at a certain excitation wavelength of 285 nm and emission value at 345 nm, respectively.[52] Identical excitation and emission scan rates and slit widths were employed in all investigations. In order to titrate against different metal complex concentrations ranging from 0 to 80 μM, a constant protein concentration of BSA was used. Similarly, the synchronous fluorescence spectra were also acquired by titrating different metal complex concentrations ranging from 0 to 80 μM while maintaining a constant BSA at the specified excitation wavelengths, λ = 15 nm and 60 nm.[53,54]
Ti(IV) complexes of (1 × 10^−5 M) concentration were gradually added, ranging from 0 to 72 μM to bind with BSA (3 × 10^−6 M) of fixed concentration in PBS buffer of pH 7.4. […] This phenomenon might be caused by modifications to the secondary or tertiary structures of BSA, which could have an impact on the tryptophan residues of the BSA microenvironment. Typically, the Stern–Volmer eqn (8) can be used to characterize fluorescence quenching.8 I0/I = 1+KBSA[Q] = 1 + kqτ0[Q]where τ0 is the lifetime of the tryptophan in BSA, which is determined to be 1 × 10^−8, kq is the quenching constant, I0 is the fluorescence intensity of BSA in the absence of complex and I denotes the fluorescence intensities of BSA in the presence of a complex of concentration [Q]. The quenching rate constant, dynamic quenching constant, average lifetime without quencher, and quencher concentration of the biomolecule are represented by the values of kq, KBSA, τ0 and [Q], respectively.
The binding constant (Kb) and the number of binding sites (n) for the static quenching interaction can be determined using the Scatchard eqn (9),9 Log(I0 − I/I) = log K + n log[Q]where I0 and I are the fluorescence intensities of BSA with and without quenchers (complexes). Fig. 7(c), Table 3 and ESI Fig. S70 ^† display the double logarithmic plot of log[I0 − I/I] vs. log[complex].

HeLa cells [1] = test: AO–EB staining assay; assay type: cell-based, human; settings: IC50 concentration, 48 hours
Description: A dual AO–EB staining fluorescent labelling technique was performed utilizing the Gohel et al. protocol, HeLa cells were seeded in 6-well plates at a density of 5 × 10^4. They were grown in a humidified CO2 incubator at 37 °C until they reached 70–80% confluency. […] The media were removed from each well, and the cells underwent two gentle room-temperature PBS rinses. Following that, the cells were combined with 100 μL of ethidium bromide and acridine orange dye and incubated separately for 15 minutes at 37 °C after staining separately, and the plates were observed and images were captured with an Olympus Confocal Laser Scanning Microscope—Fluoview Fv3000.[67,68]
The most important requirement in the creation of novel anticancer drugs is to determine the apoplastic induction caused by the drug concerned. AO–EB assay staining aids in the differentiation of necrotic, apoptotic, and living cells. By means of AO–EB staining, the morphological alterations caused by Ti-1-IS to Ti-6-IBr in HeLa cells were investigated. AO can penetrate intact cell membranes and dye them green; this distinction is caused in early apoptotic as well as normal cells. In contrast, EB can only enter cells that have lost their ability to form membranes, leaving an orange stain behind, identifying them as necrotic or late apoptotic cells.

HeLa cells [2] = test: Flow cytometry cell cycle analysis by PI staining; assay type: cell-based, human; settings: 48 h, complexes at IC50, cis-platin 5 μM
Description: A flow cytometer was also used to do the apoptotic assessment. HeLa cells (5 × 10^5) were seeded onto 6-well plates using Dulbecco's Modified Eagle Medium paper (DMEM) with 10% FBS. The plates were incubated overnight at 37 °C with 95% air and 5% CO2. […] Following trypsinization, the cells were collected, cleaned with PBS, and fixed for 24 hours at 2–6 °C in ice-cold 70% ethanol. Centrifugation was used to remove the ethanol, and cold PBS was used twice to wash the cell pellets. Later the cells were stained with propidium iodide (PI, 1 mg mL^−1) and incubated for 30 min. Flow cytometric analysis was performed using a FACS scanner and the Becton Dickinson cell search program at 595 nm and the distribution of cells in various cell cycle phases was determined.[69,70]
Through cell cycle analysis, the mechanism of cancer cell death caused by the complexes was evaluated. Anticancer drugs promote growth-inhibitory action in cancer cells by a variety of mechanisms, one of which is dysfunction in the regulation of the cell cycle.[32] For example, cis-platin inhibits DNA transcription in cells by stopping the cell cycle in the S and G2/M phases. PI staining and flow cytometry were used to examine the ability of the complexes to modify the cell cycle (Fig. 19).

HeLa cells [3] = test: ROS generation, DCFH-DA staining; assay type: cell-based, human; settings: IC50 doses, 48 hours
Description: HeLa cells of density 5 × 10^4 were seeded in six-well plates with high glucose DMEM and kept overnight until cell confluency was attained. […] The cells were treated with 10 mM 20,70-dichlorodihydrofluorescein diacetate (DCHF-DA) dye after washing twice with PBS buffer. Later, cells were incubated at 37 °C in complete darkness for 30 minutes. Subsequently, an inverted fluorescent microscope (Olympus Confocal Laser Scanning Microscope Fluoview Fv3000) was used to assess the ROS level of the cells. […] The amount of intracellular ROS was expressed as the average fluorescence intensity.[71,72]
ROS have been proposed as potential mediators of oxidative stress-induced apoptosis caused by titanium(IV) complexes, and the electrophoresis experiment mentioned above supports this theory.

[4] = Scatchard plot, 298 K, no site probe

T1 sequence (P02769 25-607): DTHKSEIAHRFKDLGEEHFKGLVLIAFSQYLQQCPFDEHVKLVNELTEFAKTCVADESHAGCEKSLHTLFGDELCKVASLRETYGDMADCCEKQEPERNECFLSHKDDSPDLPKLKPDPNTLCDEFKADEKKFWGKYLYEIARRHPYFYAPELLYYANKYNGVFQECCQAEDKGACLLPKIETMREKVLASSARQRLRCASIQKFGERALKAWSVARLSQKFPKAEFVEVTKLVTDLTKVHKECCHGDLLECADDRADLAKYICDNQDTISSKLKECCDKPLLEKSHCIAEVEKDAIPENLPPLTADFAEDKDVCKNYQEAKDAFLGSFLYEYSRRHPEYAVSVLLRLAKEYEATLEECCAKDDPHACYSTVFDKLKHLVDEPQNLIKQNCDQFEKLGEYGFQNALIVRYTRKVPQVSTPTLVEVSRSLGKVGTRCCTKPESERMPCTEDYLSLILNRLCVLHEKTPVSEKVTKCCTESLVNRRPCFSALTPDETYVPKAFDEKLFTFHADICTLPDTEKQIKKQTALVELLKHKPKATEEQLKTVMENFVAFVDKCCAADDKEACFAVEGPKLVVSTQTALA

Compound | KBSA, Stern–Volmer quenching constant (BSA) [M⁻¹] | n, number of binding sites (BSA) (BSA; Scatchard plot, 298 K) | Kb binding constant (BSA) (BSA; [4]) [M⁻¹] | Kq, quenching rate constant (BSA) [M⁻¹ s⁻¹] | Apoptosis induction by AO–EB staining (HeLa cells [1]) | G0/G1 phase (HeLa cells [2]) [%] | S Phase (HeLa cells [2]) [%] | Sub-G0 phase (HeLa cells [2]) [%] | KBSA (BSA) [M⁻¹] | ROS production compared to the control (HeLa cells [3]) | Kb binding constant (BSA) (BSA) [M⁻¹]
[O-]C(=NN=Cc1ccccc1[O-])c1ccncc1.[O-]C(=NN=Cc1ccccc1[O-])c1ccncc1.[Ti+4] [Ti-1-IS] | 175000 | 1.31 | 400 | 1.75e+13 | – | – | – | – | – | – | –
[O-]C(=NN=Cc1c([O-])ccc2ccccc12)c1ccncc1.[O-]C(=NN=Cc1c([O-])ccc2ccccc12)c1ccncc1.[Ti+4] [Ti-2-IN] | 105000 | 1.26 | 470 | 1.05e+13 | – | – | – | – | – | – | –
COc1cccc(C=NN=C([O-])c2ccncc2)c1[O-].COc1cccc(C=NN=C([O-])c2ccncc2)c1[O-].[Ti+4] [Ti-3-IO] | 277000 | 1.42 | 360 | 2.77e+13 | apoptosis was triggered | 18.32 | 19.41 | 28.48 | 277000 | increased fluorescence | –
[O-]C(=NN=Cc1cc(F)ccc1[O-])c1ccncc1.[O-]C(=NN=Cc1cc(F)ccc1[O-])c1ccncc1.[Ti+4] [Ti-4-IF] | 197000 | 1.60 | 110 | 1.97e+13 | – | – | – | – | – | – | –
[O-]C(=NN=Cc1cc(Cl)ccc1[O-])c1ccncc1.[O-]C(=NN=Cc1cc(Cl)ccc1[O-])c1ccncc1.[Ti+4] [Ti-5-ICl] | 112000 | 1.07 | 650 | 1.12e+13 | apoptosis was triggered | 7.45 | 16.10 | 14.72 | – | increased fluorescence | 650
Brc1ccc2c(c1)C=NN=C(c1ccncc1)[O][Ti]1([O]C(c3ccncc3)=NN=Cc3cc(Br)ccc3[O]1)[O]2 (stereo not drawn) [Ti-6-IBr] | 85000 | 1.35 | 140 | 8.5e+12 | – | – | – | – | – | – | –

— publication PMC12264794, “Homoleptic complexes of titanium(IV) fused with O^N^O Schiff base derivatives: design, BSA–DNA interaction, molecular docking, DFT and cytotoxicity” (RSC Advances, 2025)
